According to PMC3340383, “Synthesis and Evaluation of a Series of 2-Substituted-5-Thiopropylpiperazine (Piperidine)-1,3,4-Oxadiazoles Derivatives as Atypical Antipsychotics” (PLoS ONE, 2012):

Columns and labels:
[1] = molecular target: T1, serotonin 5-HT1A receptor (Rattus norvegicus, UniProt P19327); experiment: 5-HT1A binding assay ([3H]8-OH-DPAT, rat brain cortex); settings: [3H]8-OH-DPAT, rat brain cortex; mean of three experiments; >10000 marked b: Ki not calculated, inhibition at 10 µM too low; read-out: Ki±SEM, 5HT1A
T1 construct: Rat cerebral cortex was homogenized in 20 volumes of ice-cold Tris-HCl buffer; from tissue; host or cells: rat brain (cerebral) cortex
T1 sequence (P19327 1-422): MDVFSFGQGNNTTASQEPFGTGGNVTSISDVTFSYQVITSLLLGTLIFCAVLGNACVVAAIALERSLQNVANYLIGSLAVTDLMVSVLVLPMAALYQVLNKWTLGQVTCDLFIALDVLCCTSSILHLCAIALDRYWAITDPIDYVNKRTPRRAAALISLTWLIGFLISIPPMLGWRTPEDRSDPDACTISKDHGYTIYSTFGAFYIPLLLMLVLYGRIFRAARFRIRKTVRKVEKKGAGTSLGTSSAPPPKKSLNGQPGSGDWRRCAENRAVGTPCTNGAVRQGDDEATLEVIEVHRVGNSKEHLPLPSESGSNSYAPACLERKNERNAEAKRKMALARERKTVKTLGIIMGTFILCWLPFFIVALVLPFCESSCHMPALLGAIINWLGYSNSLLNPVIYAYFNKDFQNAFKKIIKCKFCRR
Description: All the new compounds were dissolved in 5% DMSO. The following specific radioligands and tissue sources were used: (a) serotonin 5-HT1A receptor, [^3H]8-OH-DPAT, rat brain cortex; (b) serotonin 5-HT2A receptor, [^3H]ketanserin, rat brain cortex; (c) serotonin 5-HT2C receptor, [^3H]mesulergine, rat brain cortex; (d) dopamine D2 receptor, [^3H]spiperone, rat striatum; (e) dopamine D3 receptor, [^3H]spiperone, rat olfactory tubercle (f) histamine H1 receptor, [^3H] pyrilamine, guinea pig cerebellum.
Total binding was determined in the absence of no-specific binding and compounds. Specific binding was determined in the presence of compounds. Non-specific binding was determined as the difference between total and specific binding.
Percentage of inhibition (%) = (total binding − specific binding)×100%/(total binding − nonspecific binding).
Ki values were calculated based on the Cheng and Prussoff equation: Ki = IC50/(1+C/Kd) where C represents the concentration of the hot ligand used and Kd its receptor dissociation constant were calculated for each labeled ligand. Mean Ki values and SEM were reported for at least three independent experiments.
Rat cerebral cortex was homogenized in 20 volumes of ice-cold Tris-HCl buffer (50 mM, pH 7.7) using an ULTRA TURAX homogeniser, and was then centrifuged at 32000 g for 10 min. […] The final pellet was resuspended in Tris-HCl buffer containing 10 µM Pargyline, 4 mM CaCl2 and 0.1% ascorbic acid.
Total binding each assay tube was added 900 µL of the tissue suspension, 50 µL of 0.5 nM [^3H]8-OH-DPAT (187.4 Ci/mmol, Perkin Elmer Life Sciences, Boston, MA, USA), 50 µL Tris-HCl buffer containing 10 µM Pargyline, 4 mM CaCl2 and 0.1% ascorbic acid.
Non-specific binding each assay tube was added 900 µL of the tissue suspension, 50 µL of 0.5 nM [^3H]8-OH-DPAT, 50 µL of 10 µM serotonin.
Specific binding each assay tube was added 900 µL of the tissue suspension, 50 µL of 0.5 nM [^3H]8-OH-DPAT, 50 µL of new compounds or reference drug.
The incubation was followed by a rapid vacuum filtration through Whatman GF/B glass filters, and the filtrates were washed twice with 5mL cold buffer and transferred to scintillation vials. Scintillation fluid (3.0 mL) was added and the radioactivity bound was measured using a Beckman LS 6500 liquid scintillation counter.

mice = experiment: Acute toxicity study; format: in vivo; settings: oral, survival after 24 h, highest dose 2000 mg/kg
Description: The number of surviving animals was recorded after 24 h of drug administration, and the percent mortality in each group was calculated.

[2] = Pharmacokinetics study in rat; format: in vivo; settings: rats
Description: The HPLC conditions were as follows: column, Shim-pack ODS 5.0 µm×150 mm×2.0 mm I.D (SHIMADZU, Japanese); mobile phase, 0.0167% HCOOH (TEDIA Company, USA)/acetonitrile (Merck Company, Germany)50/50; flow rate, 0.2 mL/min; column temperature, 40°C.
For routine compound 22 screening rats (n = 6/group) were dosed via the lateral tail vein at the indicated dose for intravenous administration (5 mg/kg, 100% saline) or via oral gavage (20 mg/kg, suspension in 0.5% methylcellulose). At 30 min, 1 h, 2 h, 3 h, 4 h, 5 h, 6 h, 7 h and 24 h after administration, serial blood samples were collected from the lateral tail vein into heparinized collection tubes (approximately 0.25 mL). The plasma was separated by centrifugation, and the sample was prepared for analysis HPLC/MS by protein precipitation with acetonitrile. The plasma samples were analyzed for drug and internal standard via HPLC-MS/MS protocol.

## Fc1ccc2c(C3CCN(CCCSc4nnc(-c5cccc6ccccc56)o4)CC3)noc2c1 [Compound 22, 2-(3-(4-(6-fluorobenzo[d]isoxazol-3-yl)piperidin-1-yl)propylthio)-5-(naphthalen-1-yl)-1,3,4-oxadiazole]
[1]
  Ki: 4.6 ± 0.8 nM
mice
  LD50: > 2000 mg/kg
[2]; i.v. 5 mg/kg, plasma, n = 6
  AUC0-inf: 6239.0 ng·h/mL
  t1/2: 9.3 h
[2]; oral 20 mg/kg vs i.v. 5 mg/kg
  F (bioavailability): 54.5%
[2]; oral 20 mg/kg, plasma, n = 6
  AUC0-inf: 13602.7 ng·h/mL
  Cmax: 723.6 ng/mL
  Tmax: 5 h
  t1/2: 8.6 h
